Earlier results in patent US5198463A, “Oxytocin antagonists” (Merck & Co., Inc., priority 1992, dated 1993).

System: Chinese cabbage seedlings
Settings: reported by T. Sassa et al.

COc1c(C(O)CC(C)C)ccc2c1C(=O)OCc1cc(C)cc(O)c1O2 (stereo not shown) [Compound IA, penicillide]
growth of Chinese cabbage seedlings: markedly inhibits the growth
